Test results reported in US20140303144A1, “COMPOUNDS AND METHODS OF TREATING HYPERTENSION” (Medivation Technologies, Inc., priority 2011, published 2014).

Assays:
SH-SY5Y cells = experiment: Cell viability assay (MTS reduction) against 4-Br-A23187 challenge; format: cell-based; conditions: Homo sapiens, SH-SY5Y, compound 10 nM, 4-Br-A23187 (2 μM) for 24 h, Control = 100, Vehicle = 0, read-out: Relative Cytoprotective capacity
Description: SH-SY5Y cells cultured in DMEM/F12 media supplemented with 10% FBS were seeded in 96-well microplates at 150,000 cells/cm^2. After 24 h, cells were depleted from FBS and kept in culture for 24 h before the experiment. A stock solution was prepared by dissolving the calcium ionophore 4-Br-A23187 (Calbiochem Cat. N^o 100107) in DMSO at 25 mM. Cells were then treated with 4-Br-A23187 (2 μM), hydrogen peroxide (300 μM) or the mitochondrial toxin rotenone (25 μM) in the presence of vehicle or Compound of the Invention for 24 h. Cell death was determined by measurements of LDH release according to the Cytotoxicity Detection KitPlus (Roche, Mannheim, Germany). Cell viability was determined by measuring the capacity of cells to metabolize MTS tetrazolium (MTS) according to the Cytotoxicity Detection KitPlus (Roche, Mannheim, Germany) and MTS reduction was assessed by the CellTiter 96® AQueous One Solution Cell Proliferation assay (Promega Corporation, Madison, Wis., USA). Compounds were screened at 10 nM, using DMSO as vehicle. Assay results for the experiments with Br-A23187 were presented as the MTS reduction capacity (cell viability) of untreated cells (control), 4-Br-A23187-treated cells (vehicle), and co-incubation of Br-A23187 with Compounds of the Invention treated cells and using […] (FCCP) at 10 μM for 30 min as a control. This assay assesses the ability of the test compounds to protect against cell death that was mediated by mitochondrial dysfunction. In the assay, the calcium ionophore 4-Br-A23187 was used to challenge the cells, causing calcium levels to rise in mitochondria, which leads to depolarization and cell death. Test compounds were assessed for their ability to prevent cell death in response to challenge with 4-Br-A23187.

[1] = target: T1, human recombinant adrenergic α2A receptor (Homo sapiens, UniProt P08913); experiment: Adrenergic α2A radioligand binding assay ([3H]MK-912); conditions: for inhibition at 1 µM: 1 μM compound; for Percentage inhibition of ligand binding, Adrenergic α2A: 0.1 µM
T1 construct: expressed in transfected cells; host or cells: insect Sf9 cells
T1 sequence (P08913 1-465): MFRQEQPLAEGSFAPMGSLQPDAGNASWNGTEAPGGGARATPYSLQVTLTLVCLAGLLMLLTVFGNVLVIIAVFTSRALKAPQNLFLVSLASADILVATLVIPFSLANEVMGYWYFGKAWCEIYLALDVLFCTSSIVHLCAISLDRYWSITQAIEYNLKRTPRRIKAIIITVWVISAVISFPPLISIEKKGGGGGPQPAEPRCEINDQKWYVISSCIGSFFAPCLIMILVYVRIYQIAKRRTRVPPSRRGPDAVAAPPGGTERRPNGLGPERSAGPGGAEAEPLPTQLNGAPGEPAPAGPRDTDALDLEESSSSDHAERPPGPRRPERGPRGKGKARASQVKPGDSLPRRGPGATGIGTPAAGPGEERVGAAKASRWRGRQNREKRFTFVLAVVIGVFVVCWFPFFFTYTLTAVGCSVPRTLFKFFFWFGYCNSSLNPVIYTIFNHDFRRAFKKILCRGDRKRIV
Description: To evaluate in radioligand binding assays the activity of compounds of the invention, human recombinant adrenergic α2A receptor expressed in insect Sf9 cells (Uhlen, S. et al, J. Pharmacol. Exp. Ther. 271:1558, 1994) in a modified Tris-HCl buffer (50 mM Tris-HCl, pH 7.4, 12.5 mM MgCl2, 2 mM EDTA) was used. Compounds of invention were incubated with 1 nM [^3H]MK-912 for 60 min at 25° C. MK912 was (2S-trans)-1,3,4,5′,6,6′,7,12b-octahydro-1′,3′-dimethyl-spiro[2H-benzofuro[2,3-a]quinolizine-2,4′(1′H)-pyrimidin]-2′(3′H)-one hydrochloride Non-specific binding was estimated in the presence of 10 μM WB-4101 (2-(2,6-Dimethoxyphenoxyethyl)aminomethyl-1,4-benzodioxane hydrochloride). Receptor proteins were filtered and washed, the filters were then counted to determine [^3H]MK-912 specifically bound. Compounds were screened at 1 μM or lower, using 1% DMSO as vehicle. Compounds of the invention were tested in this biochemical assay and percent inhibition of specific binding was determined. Biochemical assay results are presented as the percent inhibition of specific binding in Tables B1A-B1D.

[2] = target: T2, human recombinant adrenergic α2B receptor (Homo sapiens, UniProt P18089); experiment: Adrenergic α2B radioligand binding assay ([3H]Rauwolscine); conditions: for inhibition at 1 µM: 1 μM compound; for inhibition at 0.1 µM / Percentage inhibition of ligand binding, Adrenergic α2B: 0.1 μM compound; for Percentage inhibition of ligand binding, Adrenergic α2B: 0.1 µM
T2 construct: expressed in transfected cells; host or cells: CHO-K1 cells
T2 sequence (P18089 1-450): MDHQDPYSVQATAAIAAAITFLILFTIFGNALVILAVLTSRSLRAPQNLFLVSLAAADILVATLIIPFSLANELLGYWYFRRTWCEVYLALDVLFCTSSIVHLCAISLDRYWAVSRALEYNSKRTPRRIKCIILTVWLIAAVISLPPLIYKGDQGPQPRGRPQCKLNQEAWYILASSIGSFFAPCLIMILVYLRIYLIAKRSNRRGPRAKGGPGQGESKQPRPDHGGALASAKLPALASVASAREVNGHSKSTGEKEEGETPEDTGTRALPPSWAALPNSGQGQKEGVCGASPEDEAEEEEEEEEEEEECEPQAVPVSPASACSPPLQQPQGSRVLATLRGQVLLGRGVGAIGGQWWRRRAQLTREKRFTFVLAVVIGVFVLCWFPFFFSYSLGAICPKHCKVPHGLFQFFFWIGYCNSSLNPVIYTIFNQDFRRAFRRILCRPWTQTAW
Description: To evaluate in radioligand binding assays the activity of compounds of the invention, human recombinant adrenergic α2B receptor expressed in Chinese hamster ovary (CHO) K1 cells (Uhlen, S. et al, Eur. J. Pharmacol. 343(1):93, 1998) in a modified Tris-HCl buffer (50 mM Tris-HCl, pH 7.4, 12.5 mM MgCl2, 1 mM EDTA, 0.2% BSA) was used. Compounds of the invention were incubated with 2.5 nM [3H]Rauwolscine for 60 min at 25° C. Non-specific binding was estimated in the presence of 10 μM Prazosin. Receptor proteins were filtered and washed, the filters were then counted to determine [3H]Rauwolscine specifically bound. Compounds were screened at 1 μM or lower, using 1% DMSO as vehicle. Compounds of the invention were tested in this biochemical assay and percent inhibition of specific binding was determined. Biochemical assay results are presented as the percent inhibition of specific binding in Tables B1A-B1D.

[3] = target: T3, human recombinant adrenergic α1D receptor (Homo sapiens, UniProt P25100); experiment: Adrenergic α1D radioligand binding assay ([3H]Prazosin); conditions: for inhibition at 1 µM: 1 μM compound
T3 construct: expressed in transfected cells; host or cells: HEK-293 cells
T3 sequence (P25100 1-572): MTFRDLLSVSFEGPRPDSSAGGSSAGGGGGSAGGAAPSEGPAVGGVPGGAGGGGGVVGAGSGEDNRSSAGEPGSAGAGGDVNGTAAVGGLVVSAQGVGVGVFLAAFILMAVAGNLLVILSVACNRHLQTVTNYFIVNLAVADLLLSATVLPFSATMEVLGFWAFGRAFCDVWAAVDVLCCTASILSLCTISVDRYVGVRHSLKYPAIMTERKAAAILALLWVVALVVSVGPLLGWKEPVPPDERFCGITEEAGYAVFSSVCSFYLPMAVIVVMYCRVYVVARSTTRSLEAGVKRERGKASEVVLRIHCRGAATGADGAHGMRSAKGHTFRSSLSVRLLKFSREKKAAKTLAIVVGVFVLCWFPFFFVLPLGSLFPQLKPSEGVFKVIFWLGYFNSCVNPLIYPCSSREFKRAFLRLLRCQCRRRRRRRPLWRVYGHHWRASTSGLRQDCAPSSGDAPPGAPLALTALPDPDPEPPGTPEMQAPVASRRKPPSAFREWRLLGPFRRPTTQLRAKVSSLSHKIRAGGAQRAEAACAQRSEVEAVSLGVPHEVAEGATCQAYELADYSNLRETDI
Description: To evaluate in radioligand binding assays the activity of compounds of the invention, human recombinant adrenergic α1D receptor expressed in human embryonic kidney (HEK-293) cells (Kenny, B. et al, Br. J. Pharmacol. 115(6):981, 1995) in a 50 mM Tris-HCl buffer, pH 7.4, was used. Compounds were incubated with 0.6 nM [3H]Prazosin for 60 min at 25° C. Non-specific binding was estimated in the presence of 10 μM phentolamine. Receptor proteins were filtered and washed, the filters were then counted to determine [3H]Prazosin specifically bound. Compounds were screened at 1 μM or lower, using 1% DMSO as vehicle. Biochemical assay results are presented as the percent inhibition of specific binding in Tables B1A-B1D.

[4] = target: T4, rat adrenergic α1B receptor obtained from Wistar Rat liver (Rattus norvegicus, UniProt P15823); experiment: Adrenergic α1B radioligand binding assay ([3H]Prazosin); conditions: 0.1 μM compound; for Percentage inhibition of ligand binding, Adrenergic α1B: 0.1 µM
T4 construct: rat adrenergic α1B receptor obtained from Wistar Rat liver; from tissue; host or cells: Wistar rat liver
T4 sequence (P15823 1-515): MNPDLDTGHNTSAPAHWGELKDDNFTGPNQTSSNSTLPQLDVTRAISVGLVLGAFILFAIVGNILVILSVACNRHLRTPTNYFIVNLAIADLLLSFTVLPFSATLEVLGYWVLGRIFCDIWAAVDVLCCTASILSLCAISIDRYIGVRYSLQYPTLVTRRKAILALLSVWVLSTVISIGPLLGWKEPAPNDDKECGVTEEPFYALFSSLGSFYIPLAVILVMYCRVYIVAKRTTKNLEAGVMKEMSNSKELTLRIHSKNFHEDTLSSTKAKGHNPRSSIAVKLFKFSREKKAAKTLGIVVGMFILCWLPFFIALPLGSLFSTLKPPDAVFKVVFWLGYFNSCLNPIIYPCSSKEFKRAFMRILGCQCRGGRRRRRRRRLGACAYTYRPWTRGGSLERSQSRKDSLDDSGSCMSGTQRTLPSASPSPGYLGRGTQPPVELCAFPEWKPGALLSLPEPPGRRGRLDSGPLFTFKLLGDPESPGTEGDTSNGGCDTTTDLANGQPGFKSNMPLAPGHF
Description: To evaluate in radioligand binding assays the activity of compounds of the invention, rat adrenergic α1B receptor obtained from Wistar Rat liver (Garcia-S'ainz, J. et al, Biochem. Biophys. Res. Commun. 186:760, 1992; Michel, A. et al, Br. J. Pharmacol. 98:883, 1989) in a modified Tris-HCl buffer (50 mM Tris-HCl buffer, pH 7.4, 0.5 mM EDTA) was used. Compounds of the invention were incubated with 0.25 nM [^3H]Prazosin for 60 min at 25° C. Non-specific binding was estimated in the presence of 10 μM phentolamine. Receptor proteins were filtered and washed, the filters were then counted to determine [^3H]Prazosin specifically bound. Compounds were screened at 1 μM or lower, using 1% DMSO as vehicle. Compounds of the invention were tested in this biochemical assay and percent inhibition of specific binding was determined. Biochemical assay results are presented as the percent inhibition of specific binding in Tables B1A-B1D.

[5] = read-out: Percentage inhibition of ligand binding, Adrenergic α2A
[6] = read-out: Percentage inhibition of ligand binding, Adrenergic α2B
[7] = read-out: Percentage inhibition of ligand binding, Adrenergic α1D

**Q.** Cc1cc(C#Cc2ccc(C)nc2)c2[nH]c3c(c2c1)CN(C)CC3 [A6] was tested. Which viability at 0.01 µM (SH-SY5Y cells) did it give?
**A.** 27.6%

**Q.** With Cc1cc2c3c(c1)c1c(n3CC2c2ccc(F)cc2)CCN(C)C1 (centres unmarked) [B2] as the compound, how does the inhibition at 1 µM [1, 5] read?
**A.** 89%

**Q.** What about the inhibition at 1 µM [2, 6] of the same compound?
**A.** 74%

**Q.** What about the inhibition at 1 µM [3, 7] of the same compound?
**A.** 24%

**Q.** For Cc1ccc(C2Cn3c4c(c5cccc2c53)CN(C)CC4)cn1 (centres unmarked) [B210], which inhibition at 0.1 µM [2, 6] is on record?
**A.** 14%

**Q.** For Cc1cc(CC(O)c2ccncc2)c2[nH]c3c(c2c1)CN(C)CC3 (centres unmarked) [A43], which inhibition at 0.1 µM ([1]; 0.1 μM compound, read-out: Percentage inhibition of ligand binding, Adrenergic α2A) is on record?
**A.** 7%

**Q.** And the inhibition at 0.03 µM ([2]; 0.03 μM compound, read-out: Percentage inhibition of ligand binding, Adrenergic α2B)?
**A.** 26%

**Q.** What about the inhibition at 0.1 µM ([4]; read-out: Percentage inhibition of ligand binding, Adrenergic α1B) of the same compound?
**A.** -1%

**Q.** How did the inhibition at 0.1 µM [2, 6] turn out when Cc1cc2c(-c3ccccc3)cn3c4c(c(c1)c23)CN(C)CC4 [B211] was run?
**A.** 82%

**Q.** Cc1cc2c3c(c1)c1c(n3CC(C)(c3ccc(C)nc3)OC2C)CCN(C)C1 (centres unmarked) [B161] was tested. Which “Percentage inhibition of ligand binding, Adrenergic α2A” value ([1]; 0.1 μM compound) did it give?
**A.** 13%

**Q.** And the “Percentage inhibition of ligand binding, Adrenergic α2B” value [2]?
**A.** 7%

**Q.** What about the inhibition at 0.1 µM ([3]; 0.1 μM compound, read-out: Percentage inhibition of ligand binding, Adrenergic α1D) of the same compound?
**A.** 1%

**Q.** What about the “Percentage inhibition of ligand binding, Adrenergic α1B” value [4] of the same compound?
**A.** 2%

**Q.** Cc1cc2c3c(c1)c1c(n3CC(C)(c3ccc(C)nc3)OC2C)CCN(C)C1 (centres unmarked) [B164] was tested. Which “Percentage inhibition of ligand binding, Adrenergic α2A” value ([1]; 0.1 μM compound) did it give?
**A.** 6%

**Q.** And the “Percentage inhibition of ligand binding, Adrenergic α2B” value [2]?
**A.** 16%

**Q.** What about the “Percentage inhibition of ligand binding, Adrenergic α1D” value ([3]; 0.1 μM compound, 0.1 µM) of the same compound?
**A.** 2%

**Q.** What about the “Percentage inhibition of ligand binding, Adrenergic α1B” value [4] of the same compound?
**A.** 12%

**Q.** How did the inhibition at 1 µM [1, 5] turn out when Cc1cc2c3c(c1)c1c(n3CC(c3ccc(C)nc3)C2)CCN(C)C1 (centres unmarked) [B1] was run?
**A.** 15%

**Q.** What about the inhibition at 1 µM [2, 6] of the same compound?
**A.** 47%

**Q.** And the inhibition at 1 µM [3, 7]?
**A.** 28%
